Source: paper PMC11154717, “Evaluation of Novel Spiro-pyrrolopyridazine Derivatives as Anticancer Compounds: In Vitro Selective Cytotoxicity, Induction of Apoptosis, EGFR Inhibitory Activity, and Molecular Docking Analysis” (ACS Omega, 2024)

Tests used:
Type in all cases: cell-based, human
[1] = tested on: nontumorigenic HEK-293 cells; assay: XTT cell viability assay, HEK-293
Procedure: (§1) Human breast cancer (MCF-7), human lung cancer (H69AR), and human prostate cancer (PC-3) human nontumorigenic HEK-293 cells were obtained from the Health Protection Agency (UK) and Interlab Cell Line Collection (ICLC, Italy). Cells were maintained in RPMI medium (Sigma) containing 10% heat-inactivated fetal bovine serum, 1% penicillin, and 1% L-glutamine in a 37° humidified CO2 incubator.
(§2) XTT (2,3-bis(2-methoxy-4-nitro-5-sulfophenyl)-2H-tetrazolium-5-carboxanilide) cell viability test was used to determine the cytotoxic activities of SPPs, which were dissolved in dimethyl sulfoxide (DMSO). Cells were seeded in 96-well plates at a density of 10^4/well and treated with increasing concentrations of SPP (1–250 μM) for 24, 48, and 72 h. After the incubation period, 100 μL of XTT was added to all experimental wells, and 96-well plates were incubated at 37 °C for 4 h. After the color change was observed, the absorbance values of the wells were recorded at 570 nm in the microplate reader (Tecan). The IC50 values for all synthesized compounds, representing the concentration needed to inhibit 50% of cancer cell proliferation, were determined using Biosoft CalcuSyn 2.1 software.[13] The following formula was used to calculate selectivity indexes (SIs), which represent the cytotoxic selectivity of SPPs against cancer cells and normal cells (HEK-293): […]

[2] = tested on: MCF-7 breast cancer cells; assay: XTT cell viability assay, MCF-7; details: for IC50: XTT, 72 h
Procedure: as §1, §2

H69AR lung cancer cells = assay: XTT cell viability assay, H69AR; details: for IC50: XTT, 72 h
Procedure: as §1, §2

[3] = tested on: PC-3 prostate cancer cells; assay: XTT cell viability assay, PC-3; details: for IC50: XTT, 72 h
Procedure: as §1, §2

Compound	IC50 ([1]; Homo sapiens, HEK293, 72 h) [µM]	IC50 ([2]; Homo sapiens, MCF7) [µM]	IC50 (H69AR lung cancer cells; Homo sapiens, H69AR) [µM]	IC50 ([3]; Homo sapiens) [µM]	selectivity index (SI) MCF-7 ([2]; versus HEK-293)	selectivity index (SI) H69AR (H69AR lung cancer cells; versus HEK-293)	selectivity index (SI) PC-3 ([3]; versus HEK-293)	IC50 ([1]; 72 h) [µM]	IC50 [2] [µM]	IC50 (H69AR lung cancer cells) [µM]	IC50 [3] [µM]
c1ccc(C2=NC3(CCCCC3)c3c(-c4ccccc4)nnc(-c4ccccc4)c32)cc1 [SPP1]	16.5 ± 1.2	21.3 ± 0.4	27.1 ± 0.8	35.4 ± 1.6							
Cc1ccc(C2=NC3(CCCCC3)c3c(-c4ccccc4)nnc(-c4ccccc4)c32)cc1 [SPP2]	37.7 ± 0.2	24.6 ± 0.3	18.7 ± 1.4	44.2 ± 2.8							
Cc1cccc(C2=NC3(CCCCC3)c3c(-c4ccccc4)nnc(-c4ccccc4)c32)c1 [SPP3]	7.5 ± 1	10.4 ± 1.5	9.8 ± 0.7	8.3 ± 0.6	0.72	0.76	0.90				
CC(C)(C)c1ccc(C2=NC3(CCCCC3)c3c(-c4ccccc4)nnc(-c4ccccc4)c32)cc1 [SPP4]	55.3 ± 3.6	67.1 ± 0.2	92 ± 3.2	85.5 ± 1.2							
COc1ccccc1C1=NC2(CCCCC2)c2c(-c3ccccc3)nnc(-c3ccccc3)c21 [SPP5]	45.4 ± 2	40.9 ± 1.8	62.7 ± 0.7	70.6 ± 2.4							
Clc1ccc(C2=NC3(CCCCC3)c3c(-c4ccccc4)nnc(-c4ccccc4)c32)cc1 [SPP6]	77.8 ± 1.7	48.2 ± 1.4	137 ± 1.6	35.6 ± 0.4							
Clc1ccc(C2=NC3(CCCCC3)c3c(-c4ccccc4)nnc(-c4ccccc4)c32)cc1Cl [SPP7]	55.8 ± 0.6	69.2 ± 1.2	72.2 ± 3.4	21.1 ± 2.1							
FC(F)(F)c1ccc(C2=NC3(CCCCC3)c3c(-c4ccccc4)nnc(-c4ccccc4)c32)cc1 [SPP8]	38.2 ± 1.3	62.2 ± 3.5	71.9 ± 1.8	35.5 ± 0.7							
O=[N+]([O-])c1ccc(C2=NC3(CCCCC3)c3c(-c4ccccc4)nnc(-c4ccccc4)c32)cc1 [SPP9]	47.5 ± 2.6	57.4 ± 2.8	62.1 ± 1.2	89.2 ± 2.5							
Cc1ccc(-c2nnc(-c3ccccc3)c3c2C2(CCCCC2)N=C3c2ccccc2)cc1 [SPP11]	87.7 ± 1.6	95.2 ± 2.4	75.7 ± 3.5	80.5 ± 2.3							
Fc1ccc(-c2nnc(-c3ccccc3)c3c2C2(CCCCC2)N=C3c2ccccc2)cc1 [SPP12]	40.8 ± 2.2	12.6 ± 2.6	19.2 ± 0.4	24.2 ± 0.8							
Brc1cccc(-c2nnc(-c3ccccc3)c3c2C2(CCCCC2)N=C3c2ccccc2)c1 [SPP13]	52.7 ± 1.4	66.4 ± 1.2	70.8 ± 1.3	89.7 ± 2.4							
Cc1ccc(-c2nnc(-c3ccccc3)c3c2C2(CCCCC2)N=C3c2ccsc2)cc1 [SPP14]	12.4 ± 0.2	41.5 ± 0.8	55.3 ± 1.6	61.4 ± 0.5							
Cc1ccc(-c2nnc(-c3ccccc3)c3c2C2(CCCCC2)N=C3c2cccc(C)c2)cc1 [SPP15]	24.1 ± 1.8	29.7 ± 2.2	35.2 ± 3.2	2.8 ± 0.4							
Cc1cccc(C2=NC3(CCCCC3)c3c(-c4ccc(F)cc4)nnc(-c4ccccc4)c32)c1 [SPP16]	64.4 ± 2.3	58.3 ± 0.4	63.9 ± 2.8	76.3 ± 0.2							
Cc1ccc(-c2nnc(-c3ccccc3)c3c2C2(CCCCC2)N=C3c2ccc(C(C)(C)C)cc2)cc1 [SPP17]	74.6 ± 0.7	61.9 ± 2.6	63.3 ± 1.4	88.2 ± 3.5							
CC(C)(C)c1ccc(C2=NC3(CCCCC3)c3c(-c4ccc(F)cc4)nnc(-c4ccccc4)c32)cc1 [SPP18]	58.5 ± 1.3	65.8 ± 1.4	77.4 ± 1.7	59.6 ± 1.4							
CC(C)(C)c1ccc(C2=NC3(CCCCC3)c3c(-c4cccc(Br)c4)nnc(-c4ccccc4)c32)cc1 [SPP19]	33.4 ± 1.6	38.4 ± 0.7	34.9 ± 2.1	61 ± 2.2							
Clc1ccc(C2=NC3(CCCCC3)c3c(-c4cccc(Br)c4)nnc(-c4ccccc4)c32)cc1 [SPP20]	18.3 ± 2.1	47.6 ± 2	140 ± 2.4	24.2 ± 0.8							
Cc1ccc(-c2nnc(-c3ccccc3)c3c2C2(CCCCC2)N=C3c2ccc(C(F)(F)F)cc2)cc1 [SPP21]	47.1 ± 0.4	54.7 ± 2.9	21.8 ± 0.6	42.7 ± 1.6							
N.N.[Cl][Pt][Cl] [cisplatin, reference compound]								16.4 ± 0.4	16.8 ± 2.4	18.2 ± 0.8	14.9 ± 4.1
C#Cc1cccc(Nc2ncnc3cc(OCCOC)c(OCCOC)cc23)c1 [erlotinib, reference compound]	14.7 ± 2.8	19.4 ± 2	21.5 ± 1.8	18.9 ± 3.2							
